# Reference: US20170074857A1, “MEDICATION ADHERENCE MONITORING DEVICE” (UNIVERSITY OF FLORIDA RESEARCH FOUNDATION, INC., priority 2014, published 2017)
# Tests used:
# [1] = Example 4b: breath acetone and 2-butanone by Type 1 mGC after soft gel with 2-butanol and isopropyl alcohol; type: in vivo, human; settings: 2-butanol (40 mg) and isopropyl alcohol (30 mg)
# Method: Shown in Panel A of FIG. 76 is the 1st derivative mGC response (proportional to EDIM breath concentration) in a Type 1 SMART Device for acetone and 2-butanone as a function of breath sampling times post ingestion of the capsule.
# Panel B depicts the change from baseline of the 1st derivative mGC response. Time 0 is baseline (immediately before capsule is ingested containing the two AEMs). […] Note how the 2-butanone levels in breath begin to fall after 20 min, whereas those of acetone slowly continue to rise over the study period.
# [2] = cited from earlier work
compound,measurement,setting,value
"CCC(C)=O [Formulation 2-butanone, 2-butanone]",half life in breath,[1],about 45 minutes
same,Tmax of breath marker,[1]; fasting subject,20 min
same,blood elimination t1/2,[2]; in vivo,49 to 96 min
same,pulmonary uptake from air,"[2]; inhalation exposure 100,000-200,000 ppb",70%
